ChEMBL document CHEMBL3232855, “The discovery of N-((2H-tetrazol-5-yl)methyl)-4-((R)-1-((5r,8R)-8-(tert-butyl)-3-(3,5-dichlorophenyl)-2-oxo-1,4-diazaspiro[4.5]dec-3-en-1-yl)-4,4-dimethylpentyl)benzamide (SCH 900822): a potent and selective glucagon receptor antagonist” (J Med Chem, 2014)

How the values were obtained:
Glucagon receptor [1] = target: T1, Glucagon receptor (Homo sapiens, UniProt P47871); test: Antagonist activity at human GCGR expressed in CHO cells assessed as inhibition of glucagon-stimulated cAMP production preincubated for 30 mins followed by glucagon induction measured after 45 mins by LANCE assay; format: functional, cell-based
[2] = target: T2, Glucagon-like peptide 1 receptor (Homo sapiens, UniProt P43220); details: CHO, at 10 µM
Description: Antagonist activity at human GLP-1R expressed in CHO cells assessed as inhibition of GLP-1-stimulated cAMP production at 10 uM preincubated for 30 mins followed by GLP-1 induction measured after 45 mins by LANCE assay relative to control

Homo sapiens [3] = test: Antidiabetic activity in human assessed as inhibition of exogenous glucagon-stimulated glucose excursion at 200 mg, po qd relative to control; format: functional
Homo sapiens [4] = test: Antidiabetic activity in human assessed as inhibition of exogenous glucagon-stimulated glucose excursion at 1000 mg, po qd relative to control; format: functional
Glucagon receptor [5] = target: T1, Glucagon receptor; test: biochemical; format: cell-based, CHO
Description: Displacement of [125I]-glucagon from recombinant human GCGR expressed in CHO cells after 60 mins by scintillation counting analysis

Glucagon receptor [6] = target: Glucagon receptor (Mus musculus, UniProt Q61606); format: cell membranes, Liver, Membrane
Description: Displacement of [125I]-glucagon from GCGR in mouse liver membranes after 60 mins by scintillation counting analysis

[7] = target: T2, Glucagon-like peptide 1 receptor; test: Antagonist activity at human GLP-1R expressed in CHO cells assessed as inhibition of GLP-1-stimulated cAMP production preincubated for 30 mins followed by GLP-1 induction measured after 45 mins by LANCE assay; format: functional, cell-based

T2 sequence (P43220 whole entry): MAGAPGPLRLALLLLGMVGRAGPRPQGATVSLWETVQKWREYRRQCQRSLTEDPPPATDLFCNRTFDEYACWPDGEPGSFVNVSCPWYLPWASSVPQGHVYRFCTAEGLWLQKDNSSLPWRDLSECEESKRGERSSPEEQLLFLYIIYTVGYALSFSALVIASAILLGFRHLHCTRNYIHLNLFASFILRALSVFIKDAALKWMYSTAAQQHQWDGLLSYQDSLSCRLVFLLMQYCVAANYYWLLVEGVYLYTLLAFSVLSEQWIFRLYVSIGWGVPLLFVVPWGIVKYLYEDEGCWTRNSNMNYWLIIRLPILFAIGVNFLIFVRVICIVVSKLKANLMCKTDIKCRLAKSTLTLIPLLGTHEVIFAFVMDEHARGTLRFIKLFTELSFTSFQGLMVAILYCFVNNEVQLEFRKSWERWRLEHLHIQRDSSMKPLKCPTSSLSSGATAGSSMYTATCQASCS
Glucagon receptor (Mus musculus, UniProt Q61606), sequence (Q61606 whole entry): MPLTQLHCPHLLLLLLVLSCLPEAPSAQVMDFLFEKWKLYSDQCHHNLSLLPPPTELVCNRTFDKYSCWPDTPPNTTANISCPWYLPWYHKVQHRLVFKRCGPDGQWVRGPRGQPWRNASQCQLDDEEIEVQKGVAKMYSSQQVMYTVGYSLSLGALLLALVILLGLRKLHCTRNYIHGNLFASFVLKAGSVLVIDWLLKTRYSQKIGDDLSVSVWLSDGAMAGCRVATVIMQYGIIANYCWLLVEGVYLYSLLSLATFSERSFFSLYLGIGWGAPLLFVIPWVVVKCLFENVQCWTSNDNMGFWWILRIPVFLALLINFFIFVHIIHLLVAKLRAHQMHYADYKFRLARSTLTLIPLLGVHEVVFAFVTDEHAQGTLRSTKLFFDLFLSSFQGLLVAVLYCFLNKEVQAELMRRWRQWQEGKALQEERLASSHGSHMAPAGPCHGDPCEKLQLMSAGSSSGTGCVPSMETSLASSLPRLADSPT
T1 sequence (P47871 whole entry): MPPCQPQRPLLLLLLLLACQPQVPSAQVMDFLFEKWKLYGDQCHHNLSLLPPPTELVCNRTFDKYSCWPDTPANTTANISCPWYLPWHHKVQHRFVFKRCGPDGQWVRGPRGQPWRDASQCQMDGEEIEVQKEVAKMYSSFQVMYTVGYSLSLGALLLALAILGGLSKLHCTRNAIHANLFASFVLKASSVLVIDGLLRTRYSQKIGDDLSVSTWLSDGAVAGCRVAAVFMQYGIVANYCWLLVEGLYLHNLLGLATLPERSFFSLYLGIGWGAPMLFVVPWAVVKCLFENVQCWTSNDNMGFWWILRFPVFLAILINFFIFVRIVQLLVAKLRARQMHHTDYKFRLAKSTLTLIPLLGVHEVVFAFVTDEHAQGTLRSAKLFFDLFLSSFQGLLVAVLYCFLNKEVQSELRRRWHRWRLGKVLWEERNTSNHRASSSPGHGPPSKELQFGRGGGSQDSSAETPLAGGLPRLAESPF

| Compound | IC50 (Glucagon receptor [1]) | inhibition [2] | IC50 (Glucagon receptor [5]) | IC50 (Glucagon receptor [6]) | IC50 [7] | inhibition (INH) (Homo sapiens [3]) | inhibition (INH) (Homo sapiens [4]) |
| --- | --- | --- | --- | --- | --- | --- | --- |
| CCCc1c(C(C)C)cc(C(C)C)c(C(C)O)c1-c1ccc(F)cc1 (single isomer, unassigned; (+)) |  |  |  |  |  | 59% | 100% |
| CC(C)(C)[C@H]1CC[C@]2(CC1)N=C(c1ccc(Cl)cc1)C(=O)N2Cc1ccc(C(=O)NCCC(=O)O)cc1 | 1400 nM | < 50% | 940 nM | > 10000 nM |  |  |  |
| CC(C)(C)[C@H]1CC[C@]2(CC1)N=C(c1ccccc1F)C(=O)N2Cc1ccc(C(=O)NCCC(=O)O)cc1 | 730 nM | < 50% | > 10000 nM | > 10000 nM |  |  |  |
| C[C@H](c1ccc(C(=O)NCc2nnn[nH]2)cc1)N1C(=O)C(c2cc(Cl)cc(Cl)c2)=N[C@]12CC[C@@H](C(C)(C)C)CC2 | 180 nM | 9% | 130 nM | 400 nM | > 10000 nM |  |  |
| CC(C)(C)[C@H]1CC[C@]2(CC1)N=C(c1ccc(C(F)(F)F)cc1)C(=O)N2Cc1ccc(C(=O)NCCC(=O)O)cc1 | 800 nM | < 50% |  | 9600 nM |  |  |  |
| COc1ccc2cc(-c3cc(-c4cc(Cl)cc(Cl)c4)nn3[C@@H](C)c3ccc(C(=O)NCCC(=O)O)cc3)ccc2c1 [MK-0893] |  |  |  |  |  | 59% | 100% |
| CC(C)(C)[C@H]1CC[C@]2(CC1)N=C(c1cc(Cl)cc(Cl)c1)C(=O)N2Cc1ccc(C(=O)NCCC(=O)O)cc1 | 290 nM | < 50% | 520 nM | > 10000 nM |  |  |  |
| CC(C)(C)CC[C@H](c1ccc(C(=O)NCc2nn[nH]n2)cc1)N1C(=O)C(c2ccc(F)cc2)=N[C@]12CC[C@@H](C(C)(C)C)CC2 | 240 nM |  | 13 nM | 90 nM | > 10000 nM |  |  |
| C[C@H](c1ccc(C(=O)NCCC(=O)O)cc1)N1C(=O)C(c2cccc(C3CC3)c2)=N[C@]12CC[C@@H](C(C)(C)C)CC2 | 340 nM |  | 56 nM | 1700 nM | > 10000 nM |  |  |
| CC(C)(C)[C@H]1CC[C@]2(CC1)N=C(c1cccc(C(F)(F)F)c1)C(=O)N2Cc1ccc(C(=O)NCCC(=O)O)cc1 | 510 nM | < 50% |  | 10000 nM |  |  |  |

Now from value to molecule, other results behind:

| IC50 (Glucagon receptor [1]) | inhibition [2] | IC50 (Glucagon receptor [5]) | IC50 (Glucagon receptor [6]) | IC50 [7] | Compound | inhibition (INH) (Homo sapiens [3]) | inhibition (INH) (Homo sapiens [4]) |
| --- | --- | --- | --- | --- | --- | --- | --- |
| 1900 nM | < 50% |  |  |  | CC(C)(C)[C@H]1CC[C@]2(CC1)N=C(c1ccc(OC(F)(F)F)cc1)C(=O)N2Cc1ccc(C(=O)NCCC(=O)O)cc1 |  |  |
| 1900 nM | < 50% |  |  |  | CC(C)(C)[C@H]1CC[C@]2(CC1)N=C(c1ccc(F)cc1)C(=O)N2Cc1ccc(C(=O)NCCC(=O)O)cc1 |  |  |
| 3200 nM | < 50% |  |  |  | CC(C)(C)[C@H]1CC[C@]2(CC1)N=C(c1ccccc1)C(=O)N2Cc1ccc(C(=O)NCCC(=O)O)cc1 |  |  |
| 6800 nM | < 50% |  |  |  | CC(C)(C)[C@H]1CC[C@]2(CC1)N=C(c1ccccc1Cl)C(=O)N2Cc1ccc(C(=O)NCCC(=O)O)cc1 |  |  |
| 1600 nM | < 50% |  |  |  | CC(C)(C)[C@H]1CC[C@]2(CC1)N=C(c1ccc(Cl)c(Cl)c1)C(=O)N2Cc1ccc(C(=O)NCCC(=O)O)cc1 |  |  |
| 840 nM |  | 330 nM | 1500 nM | 2200 nM | C[C@H](c1ccc(C(=O)NCCC(=O)O)cc1)N1C(=O)C(c2cccc(OC(F)(F)F)c2)=N[C@]12CC[C@@H](C(C)(C)C)CC2 |  |  |
| 280 nM |  | 720 nM | 2200 nM | 6300 nM | C[C@H](c1ccc(C(=O)NCCC(=O)O)cc1)N1C(=O)C(c2cccc(C(F)(F)F)c2)=N[C@]12CC[C@@H](C(C)(C)C)CC2 |  |  |
| 770 nM | < 50% | 770 nM | > 10000 nM |  | CC(C)(C)[C@H]1CC[C@]2(CC1)N=C(c1cccc(Cl)c1)C(=O)N2Cc1ccc(C(=O)NCCC(=O)O)cc1 |  |  |
| 440 nM |  | 44 nM | 2300 nM | 4300 nM | C[C@H](c1ccc(C(=O)NCCC(=O)O)cc1)N1C(=O)C(c2ccc(F)c(Cl)c2)=N[C@]12CC[C@@H](C(C)(C)C)CC2 |  |  |
